# Results from publication PMC8486872, “A rational blueprint for the design of chemically-controlled protein switches” (Nature Communications, 2021).
# “And” between values parts separate entries of the source, which are not always exact repeats. Equal entries are not always repeated.
# Tests used:
# [1] = tested on: Bcl-XL:LD3 complex (CDH-1); test: SPR drug competition assay, Bcl-XL:LD3 (CDH-1) with Drug-1; format: binding; conditions: Fig S10d
# Procedure: Drug IC50s of disrupting CDH heterodimers were measured on a Biacore 8 K device. 4 µM of LD3 and its variants (LD3_v1-3) or LD6 were mixed with their respective drugs. […] Multiple-cycle injection of the protein-drug complex with different stoichiometry were performed to measure the decrease of maximal RUs (response units at 120 sec). Apparent IC50s were obtained using the inhibition versus response fitting models in prism software (Version 8.3.0).
# Apparent IC50s of SPR drug competition assay were calculated using three-parameter nonlinear regression in GraphPad Prism (Version 8.3.0). Representative data of cellular assays are presented as individual values and mean values (bars). n = 3 refers to biological replicates. All IC50/EC50 values of cellular assays (CDH-TF, CDH-GEMS, AIR-TF and AIR-GEMS) reported were calculated using four-parameter nonlinear regression ± s.d. […]
# Readouts from the
# sensorgrams were extracted at the time point 120 s to calculate the IC50s using a three-parameter
# [2] = tested on: SEAP and Luciferase expression in HEK293T cells; test: SIMO designer cells (AIR-1/2-GEMS + CDH-1/2-TF); format: cell-based; design: Bottom (best-fit value) / Top (best-fit value) / Span (best-fit value): unit not given here; conditions: for logIC50 (best-fit value): drug in nM
# Text: Fig. 5 Orthogonal chemical switches enable implementation of multi-input multi-output control modes in mammalian cells. a Scheme of multi-inputs multi-outputs (MIMO) designer cells where two drugs control two different outputs. b, c Cells were co-transfected with AIR-1/2-GEMS and CDH-3-TF regulate SEAP and Luciferase expression, respectively. […] AIR-1/2-GEMS coupled with SEAP expression circuits were co-transfected with CDH-1/2-TF circuits which control the Luciferase production. Respective drug concentrations ranged from 0.001 nM to 1 µM. All values presented are mean ± s.d. of three replicates and curves were fitted by four-parameters nonlinear regression. b, c, e, f, h, i Source data are available in the source data file.
# Finally, we engineered SIMO cells (Fig. 5g) using two designed switches that produce ON and OFF responses upon exposure to the same drug. We transfected cells with combinations of AIR-GEMS and CDH-TFs which controlled the expression of the reporter proteins SEAP and Luciferase, respectively. […] Therefore, computational design expanded the repertoire of protein switches controlled by the same compounds that can be used to simultaneous turn ON and OFF synergistic outputs. […]
# AIR-1-GEMS coupled with SEAP expression circuits (i) and CDH-1-TF circuits which control the Luciferase production (j). j-k) Quantification of SEAP and Luciferase activities under Drug-2. AIR-2-GEMS coupled with SEAP expression circuits (k) and CDH-2-TF circuits which control the Luciferase production (l). b-k) Each data point represents the mean of n = 3 biological replicates, and the dose-dependent curve were fitted using four-parameter nonlinear regression.
# [3] = Fig S13i, CDH-1-TF control Luciferase expression only, Drug-1 0.01 nM
# [4] = Fig S13i, CDH-1-TF control Luciferase expression only, Drug-1 10 nM
# [5] = Fig S13i, CDH-1-TF control Luciferase expression only, Drug-1 31.6 nM
# [6] = Fig S13i, CDH-1-TF control Luciferase expression only, Drug-1 100 nM
# [7] = Fig S13i, CDH-1-TF control Luciferase expression only, Drug-1 316 nM
# [8] = Fig S13h, AIR-1-GEMS control SEAP expression only, Drug-1 0.01 nM
# [9] = Fig S13h, AIR-1-GEMS control SEAP expression only, Drug-1 0.1 nM
# [10] = Fig S13h, AIR-1-GEMS control SEAP expression only, Drug-1 1 nM
# [11] = Fig S13h, AIR-1-GEMS control SEAP expression only, Drug-1 316 nM
# [12] = sheet Figure5h, Luciferase, four-parameter fit
# [13] = sheet Figure5h, SEAP, four-parameter fit
smiles,measurement,setting,value
"CN(C)CC#Cc1ccc(OCCCc2sc(N3CCc4cccc(C(=O)Nc5nc6ccccc6s5)c4C3)nc2C(=O)O)c(F)c1 [Drug-1, A-1155463]",IC50,"[1]; Bcl-Xl:LD3, best-fit, inhibitor vs. response (three parameters)",0.22 nM
same,logIC50,"[1]; Bcl-Xl:LD3, best-fit, three parameters, Drug-1 in nM",-0.658
same,Bcl-Xl:LD3 response,[1]; Drug-1 0.001 nM,275.326 and 251.306 and 243.642
same,Bcl-Xl:LD3 response,[1]; Drug-1 0.005 nM,242.985 and 229.287 and 224.833
same,Bcl-Xl:LD3 response,[1]; Drug-1 0.01 nM,223.576 and 215.113 and 215.946
same,Bcl-Xl:LD3 response,[1]; Drug-1 0.05 nM,225.211 and 226.402 and 224.55
same,Bcl-Xl:LD3 response,[1]; Drug-1 0.1 nM,186.039 and 182.298 and 182.078
same,Bcl-Xl:LD3 response,[1]; Drug-1 0.5 nM,123.883 and 120.417 and 119.693
same,Bcl-Xl:LD3 response,[1]; Drug-1 1 nM,121.627 and 115.582 and 111.718
same,Bcl-Xl:LD3 response,[1]; Drug-1 5 nM,122.215 and 115.477 and 118.457
same,Bcl-Xl:LD3 response,[1]; Drug-1 10 nM,92.0281 and 92.2496 and 88.1833
same,Bcl-Xl:LD3 response,[1]; Drug-1 50 nM,84.1354 and 86.416 and 84.392
same,Bcl-Xl:LD3 response,[1]; Drug-1 100 nM,81.6073 and 77.884 and 79.2329
same,Bcl-Xl:LD3 response,[1]; Drug-1 500 nM,65.1408 and 62.8874 and 62.5965
same,Bcl-Xl:LD3 response,[1]; Drug-1 1000 nM,42.6601 and 38.7292 and 40.0074
same,SEAP and Luciferase outputs in SIMO cells,[2]; 0.001 nM to 1 µM,simultaneously activated SEAP production and suppressed the expression of Luciferase
same,SEAP,"[2]; Fig5h, turn ON via AIR-1-GEMS, 0.001 nM",19.8743 U/L and 19.5134 U/L and 15.1383 U/L
same,SEAP,"[2]; Fig5h, turn ON via AIR-1-GEMS, 0.005 nM",19.2907 U/L and 17.6338 U/L and 18.8337 U/L
same,SEAP,"[2]; Fig5h, turn ON via AIR-1-GEMS, 0.01 nM",18.6271 U/L and 21.8407 U/L and 37.1349 U/L
same,SEAP,"[2]; Fig5h, turn ON via AIR-1-GEMS, 0.05 nM",37.9776 U/L and 52.7802 U/L and 54.2278 U/L
same,SEAP,"[2]; Fig5h, turn ON via AIR-1-GEMS, 0.1 nM",39.7647 U/L and 50.8999 U/L and 76.4896 U/L
same,SEAP,"[2]; Fig5h, turn ON via AIR-1-GEMS, 0.5 nM",46.7816 U/L and 46.7958 U/L and 68.9342 U/L
same,SEAP,"[2]; Fig5h, turn ON via AIR-1-GEMS, 1 nM",36.1123 U/L and 44.1109 U/L and 47.7004 U/L
same,SEAP,"[2]; Fig5h, turn ON via AIR-1-GEMS, 5 nM",163.102 U/L and 218.766 U/L and 249.722 U/L
same,SEAP,"[2]; Fig5h, turn ON via AIR-1-GEMS, 10 nM",315.129 U/L and 324.74 U/L and 353.471 U/L
same,SEAP,"[2]; Fig5h, turn ON via AIR-1-GEMS, 50 nM",364.997 U/L and 306.053 U/L and 339.025 U/L
same,SEAP,"[2]; Fig5h, turn ON via AIR-1-GEMS, 100 nM",443.801 U/L and 453.931 U/L and 405.497 U/L
same,SEAP,"[2]; Fig5h, turn ON via AIR-1-GEMS, 500 nM",488.063 U/L and 432.803 U/L and 436.708 U/L
same,SEAP,"[2]; Fig5h, turn ON via AIR-1-GEMS, 1000 nM",411.613 U/L and 466.826 U/L and 364.664 U/L
same,Luciferase,"[2]; Fig5h, via CDH-1-TF, 0.005 nM",13170 and 13560 and 13671
same,Luciferase,"[2]; Fig5h, via CDH-1-TF, 0.01 nM",14134 and 13430 and 12324
same,Luciferase,"[2]; Fig5h, via CDH-1-TF, 0.05 nM",14625 and 13685 and 11174
same,Luciferase,"[2]; Fig5h, via CDH-1-TF, 0.5 nM",10957 and 11915 and 9777
same,Luciferase,"[2]; Fig5h, via CDH-1-TF, 1 nM",11394 and 11027 and 9891
same,Luciferase,"[2]; Fig5h, via CDH-1-TF, 5 nM",9387 and 10202 and 8501
same,Luciferase,"[2]; Fig5h, via CDH-1-TF, 10 nM",9897 and 9353 and 8698
same,Luciferase,"[2]; Fig5h, via CDH-1-TF, 50 nM",8493 and 5450 and 4767
same,Luciferase,"[2]; Fig5h, via CDH-1-TF, 100 nM",6159 and 4105 and 3304
same,Luciferase,"[2]; Fig5h, via CDH-1-TF, 500 nM",6685 and 4541 and 3781
same,Luciferase,[2]; [3],4.631 RLU and 4.974 RLU and 6.289 RLU
same,SEAP,[2]; [3],47563 U/L and 58731 U/L and 59991 U/L
same,SEAP,"[2]; Fig S13i, CDH-1-TF control Luciferase expression only, Drug-1 0.1 nM",53899 U/L and 50028 U/L and 61321 U/L
same,SEAP,"[2]; Fig S13i, CDH-1-TF control Luciferase expression only, Drug-1 1 nM",51520 U/L and 52067 U/L and 58888 U/L
same,SEAP,"[2]; Fig S13i, CDH-1-TF control Luciferase expression only, Drug-1 3.16 nM",43654 U/L and 44498 U/L and 55865 U/L
same,Luciferase,[2]; [4],5.35 RLU and 3.637 RLU and 4.7853 RLU
same,SEAP,[2]; [4],47243 U/L and 36047 U/L and 43911 U/L
same,Luciferase,[2]; [5],10.558 RLU and 9.125 RLU and 9.89 RLU
same,SEAP,[2]; [5],41739 U/L and 35234 U/L and 36053 U/L
same,Luciferase,[2]; [6],6.8735 RLU and 7.9639 RLU and 7.26 RLU
same,SEAP,[2]; [6],32885 U/L and 32749 U/L and 33680 U/L
same,Luciferase,[2]; [7],7.503 RLU and 9.5502 RLU and 5.763 RLU
same,SEAP,[2]; [7],36324 U/L and 29686 U/L and 32588 U/L
same,SEAP,"[2]; Fig S13i, CDH-1-TF control Luciferase expression only, Drug-1 1000 nM",22215 U/L and 22717 U/L and 21612 U/L
same,Luciferase,[2]; [8],7.197 RLU and 7.213 RLU and 7.2493 RLU
same,SEAP,[2]; [8],251 U/L and 231 U/L and 325 U/L
same,Luciferase,[2]; [9],7.338 RLU and 6.8 RLU and 5.088 RLU
same,SEAP,[2]; [9],201 U/L and 203 U/L and 381 U/L
same,Luciferase,[2]; [10],9.026 RLU and 10.0168 RLU
same,SEAP,[2]; [10],267 U/L and 249 U/L and 441 U/L
same,SEAP,"[2]; Fig S13h, AIR-1-GEMS control SEAP expression only, Drug-1 3.16 nM",363 U/L and 301 U/L and 409 U/L
same,SEAP,"[2]; Fig S13h, AIR-1-GEMS control SEAP expression only, Drug-1 10 nM",551 U/L and 601 U/L
same,SEAP,"[2]; Fig S13h, AIR-1-GEMS control SEAP expression only, Drug-1 31.6 nM",639 U/L and 579 U/L and 471 U/L
same,SEAP,"[2]; Fig S13h, AIR-1-GEMS control SEAP expression only, Drug-1 100 nM",421 U/L and 435 U/L and 441 U/L
same,Luciferase,[2]; [11],232.378 RLU and 215.546 RLU and 184.304 RLU
same,SEAP,[2]; [11],301 U/L and 339 U/L and 443 U/L
same,Luciferase,"[2]; Fig S13h, AIR-1-GEMS control SEAP expression only, Drug-1 1000 nM",239.146 RLU and 224.11 RLU and 201.76 RLU
same,Bottom (best-fit value),[2]; [12],1591
same,HillSlope (best-fit value),[2]; [12],-0.5534
same,Span (best-fit value),[2]; [12],8125
same,Top (best-fit value),[2]; [12],9717
same,logIC50 (best-fit value),[2]; [12],1.252
same,IC50,"[2]; sheet Figure5h, Luciferase, four-parameter fit, read-out: IC50 (best-fit value)",17.9 nM
same,Bottom (best-fit value),[2]; [13],10.72
same,HillSlope (best-fit value),[2]; [13],0.8045
same,Span (best-fit value),[2]; [13],94.16
same,Top (best-fit value),[2]; [13],104.9
same,logIC50 (best-fit value),[2]; [13],1.797
